Source: the NIST ThermoML archive (doi:10.1021/je201009c)
Numbers after ± are expanded uncertainties.

Assay: xn = mol fraction of the nth substance listed
Conditions: for surface tension liquid-gas: Capillary rise; for viscosity / mass density: 101 kPa, Liquid; for viscosity: Falling or rolling sphere viscometry; for mass density: Vibrating tube method

CC(=O)OCc1ccccc1 [benzyl ethanoate] + OCc1ccccc1
Conditions | mass density [kg/m3] | surface tension liquid-gas [mN/m] | viscosity [mPa·s]
293.15 K, x1 = 0.05 | 1046.29 ± 0.19 | – | 5.782 ± 0.05
293.15 K, x1 = 0.1001 | 1047.03 ± 0.19 | 39.2 ± 0.4 | 5.319 ± 0.046
293.15 K, x1 = 0.1502 | 1047.73 ± 0.2 | – | 4.905 ± 0.043
293.15 K, x1 = 0.2001 | 1048.38 ± 0.2 | 39.2 ± 0.4 | 4.536 ± 0.04
293.15 K, x1 = 0.25 | 1048.99 ± 0.2 | – | 4.214 ± 0.038
293.15 K, x1 = 0.3 | 1049.58 ± 0.21 | 39.1 ± 0.4 | 3.927 ± 0.036
293.15 K, x1 = 0.3498 | 1050.15 ± 0.21 | – | 3.678 ± 0.034
293.15 K, x1 = 0.4001 | 1050.71 ± 0.22 | 39 ± 0.4 | 3.454 ± 0.033
293.15 K, x1 = 0.45 | 1051.24 ± 0.22 | – | 3.252 ± 0.031
293.15 K, x1 = 0.5 | 1051.77 ± 0.23 | 38.7 ± 0.4 | 3.087 ± 0.03
293.15 K, x1 = 0.5501 | 1052.26 ± 0.23 | – | 2.93 ± 0.029
293.15 K, x1 = 0.6001 | 1052.74 ± 0.24 | 38.4 ± 0.4 | 2.795 ± 0.028
293.15 K, x1 = 0.65 | 1053.19 ± 0.24 | – | 2.684 ± 0.028
293.15 K, x1 = 0.6999 | 1053.64 ± 0.25 | 38.1 ± 0.4 | 2.589 ± 0.027
293.15 K, x1 = 0.7502 | 1054.03 ± 0.26 | – | 2.505 ± 0.027
293.15 K, x1 = 0.8 | 1054.42 ± 0.26 | 37.8 ± 0.4 | 2.428 ± 0.026
293.15 K, x1 = 0.85 | 1054.77 ± 0.27 | – | 2.376 ± 0.026
293.15 K, x1 = 0.9 | 1055.11 ± 0.28 | 37.5 ± 0.4 | 2.343 ± 0.026
293.15 K, x1 = 0.95 | 1055.46 ± 0.29 | – | 2.326 ± 0.026
293.15 K, x1 = 1 | 1055.81 ± 0.3 | 37.3 ± 0.5 | 2.324 ± 0.026
303.15 K, x1 = 0.05 | 1038.18 ± 0.19 | – | 4.21 ± 0.038
303.15 K, x1 = 0.1001 | 1038.83 ± 0.19 | 38 ± 0.4 | 3.894 ± 0.036
303.15 K, x1 = 0.1502 | 1039.44 ± 0.19 | – | 3.623 ± 0.034
303.15 K, x1 = 0.2001 | 1040.01 ± 0.2 | 37.9 ± 0.4 | 3.378 ± 0.032
303.15 K, x1 = 0.25 | 1040.58 ± 0.2 | – | 3.165 ± 0.03
303.15 K, x1 = 0.3 | 1041.11 ± 0.2 | 37.8 ± 0.4 | 2.972 ± 0.029
303.15 K, x1 = 0.3498 | 1041.61 ± 0.21 | – | 2.806 ± 0.028
303.15 K, x1 = 0.4001 | 1042.1 ± 0.21 | 37.5 ± 0.4 | 2.662 ± 0.027
303.15 K, x1 = 0.45 | 1042.57 ± 0.22 | – | 2.535 ± 0.026
303.15 K, x1 = 0.5 | 1043.01 ± 0.22 | 37.1 ± 0.4 | 2.432 ± 0.026
303.15 K, x1 = 0.5501 | 1043.43 ± 0.23 | – | 2.332 ± 0.025
303.15 K, x1 = 0.6001 | 1043.84 ± 0.23 | 36.7 ± 0.4 | 2.234 ± 0.025
303.15 K, x1 = 0.65 | 1044.24 ± 0.24 | – | 2.171 ± 0.024
303.15 K, x1 = 0.6999 | 1044.62 ± 0.25 | 36.3 ± 0.4 | 2.091 ± 0.024
303.15 K, x1 = 0.7502 | 1044.99 ± 0.25 | – | 2.035 ± 0.024
303.15 K, x1 = 0.8 | 1045.35 ± 0.26 | 36 ± 0.4 | 1.985 ± 0.023
303.15 K, x1 = 0.85 | 1045.7 ± 0.27 | – | 1.941 ± 0.023
303.15 K, x1 = 0.9 | 1046.05 ± 0.27 | 35.8 ± 0.4 | 1.902 ± 0.023
303.15 K, x1 = 0.95 | 1046.4 ± 0.28 | – | 1.867 ± 0.023
303.15 K, x1 = 1 | 1046.74 ± 0.29 | 35.6 ± 0.4 | 1.836 ± 0.023
313.15 K, x1 = 0.05 | 1030.21 ± 0.19 | – | 3.18 ± 0.03
313.15 K, x1 = 0.1001 | 1030.76 ± 0.19 | 37 ± 0.4 | 3.006 ± 0.029
313.15 K, x1 = 0.1502 | 1031.27 ± 0.19 | – | 2.848 ± 0.028
313.15 K, x1 = 0.2001 | 1031.72 ± 0.19 | 36.8 ± 0.4 | 2.687 ± 0.027
313.15 K, x1 = 0.25 | 1032.23 ± 0.2 | – | 2.536 ± 0.026
313.15 K, x1 = 0.3 | 1032.67 ± 0.2 | 36.4 ± 0.4 | 2.396 ± 0.025
313.15 K, x1 = 0.3498 | 1033.08 ± 0.21 | – | 2.265 ± 0.024
313.15 K, x1 = 0.4001 | 1033.48 ± 0.21 | 36 ± 0.4 | 2.154 ± 0.024
313.15 K, x1 = 0.45 | 1033.86 ± 0.21 | – | 2.056 ± 0.023
313.15 K, x1 = 0.5 | 1034.24 ± 0.22 | 35.6 ± 0.4 | 1.966 ± 0.023
313.15 K, x1 = 0.5501 | 1034.6 ± 0.22 | – | 1.903 ± 0.023
313.15 K, x1 = 0.6001 | 1034.94 ± 0.23 | 35.2 ± 0.4 | 1.832 ± 0.022
313.15 K, x1 = 0.65 | 1035.27 ± 0.24 | – | 1.774 ± 0.022
313.15 K, x1 = 0.6999 | 1035.57 ± 0.24 | 34.8 ± 0.4 | 1.728 ± 0.022
313.15 K, x1 = 0.7502 | 1035.87 ± 0.25 | – | 1.684 ± 0.022
313.15 K, x1 = 0.8 | 1036.18 ± 0.26 | 34.6 ± 0.4 | 1.646 ± 0.021
313.15 K, x1 = 0.85 | 1036.48 ± 0.26 | – | 1.613 ± 0.021
313.15 K, x1 = 0.9 | 1036.79 ± 0.27 | 34.4 ± 0.4 | 1.572 ± 0.021
313.15 K, x1 = 0.95 | 1037.11 ± 0.28 | – | 1.524 ± 0.021
313.15 K, x1 = 1 | 1037.42 ± 0.29 | 34.3 ± 0.4 | 1.474 ± 0.021
323.15 K, x1 = 0.05 | 1021.94 ± 0.18 | – | 2.45 ± 0.026
323.15 K, x1 = 0.1001 | 1022.36 ± 0.19 | 36 ± 0.4 | 2.349 ± 0.025
323.15 K, x1 = 0.1502 | 1022.75 ± 0.19 | – | 2.232 ± 0.024
323.15 K, x1 = 0.2001 | 1023.12 ± 0.19 | 35.7 ± 0.4 | 2.125 ± 0.024
323.15 K, x1 = 0.25 | 1023.48 ± 0.19 | – | 2.021 ± 0.023
323.15 K, x1 = 0.3 | 1023.81 ± 0.2 | 35.2 ± 0.4 | 1.925 ± 0.022
323.15 K, x1 = 0.3498 | 1024.13 ± 0.2 | – | 1.838 ± 0.022
323.15 K, x1 = 0.4001 | 1024.44 ± 0.21 | 34.8 ± 0.4 | 1.756 ± 0.022
323.15 K, x1 = 0.45 | 1024.73 ± 0.21 | – | 1.683 ± 0.021
323.15 K, x1 = 0.5 | 1025.02 ± 0.22 | 34.3 ± 0.4 | 1.62 ± 0.021
323.15 K, x1 = 0.5501 | 1025.28 ± 0.22 | – | 1.561 ± 0.021
323.15 K, x1 = 0.6001 | 1025.53 ± 0.23 | 33.9 ± 0.4 | 1.521 ± 0.021
323.15 K, x1 = 0.65 | 1025.79 ± 0.23 | – | 1.482 ± 0.02
323.15 K, x1 = 0.6999 | 1026.04 ± 0.24 | 33.5 ± 0.4 | 1.444 ± 0.02
323.15 K, x1 = 0.7502 | 1026.28 ± 0.24 | – | 1.41 ± 0.02
323.15 K, x1 = 0.8 | 1026.52 ± 0.25 | 33.4 ± 0.4 | 1.387 ± 0.02
323.15 K, x1 = 0.85 | 1026.77 ± 0.26 | – | 1.361 ± 0.02
323.15 K, x1 = 0.9 | 1027.01 ± 0.26 | 33.3 ± 0.4 | 1.339 ± 0.02
323.15 K, x1 = 0.95 | 1027.26 ± 0.27 | – | 1.308 ± 0.02
323.15 K, x1 = 1 | 1027.51 ± 0.28 | 33.2 ± 0.4 | 1.256 ± 0.02
